The source of these data is patent publication US20240150375A1, “MACROCYCLIC COMPOUNDS AND USES THEREOF” (Theseus Pharmaceuticals, Inc., priority 2021, published 2024).

In one test the target is EGFR^L858R/T790M (Homo sapiens, UniProt P00533, L858R/T790M). Nature of the test: HTRF KinEASE-TK in vitro kinase assay, EGFR L858R/T790M (LT). It is filed as biochemical. The conditions noted are these: EGFR L858R/T790M kinase inhibition. The source says: (§1) The biological activity of compounds described herein can be studied according to standard methods known in the art. Methods can be used to study inhibition of EGFR, including mutant forms of EGFR comprising L858R, T790M, C797S, and/or Del19 mutations, or any combination thereof (e.g., L858R single, double, or triple mutants). Exemplary, non-limiting methods are described herein.
EGFR^L858R/T790M, sequence (P00533 25-1210 T790M/L858R): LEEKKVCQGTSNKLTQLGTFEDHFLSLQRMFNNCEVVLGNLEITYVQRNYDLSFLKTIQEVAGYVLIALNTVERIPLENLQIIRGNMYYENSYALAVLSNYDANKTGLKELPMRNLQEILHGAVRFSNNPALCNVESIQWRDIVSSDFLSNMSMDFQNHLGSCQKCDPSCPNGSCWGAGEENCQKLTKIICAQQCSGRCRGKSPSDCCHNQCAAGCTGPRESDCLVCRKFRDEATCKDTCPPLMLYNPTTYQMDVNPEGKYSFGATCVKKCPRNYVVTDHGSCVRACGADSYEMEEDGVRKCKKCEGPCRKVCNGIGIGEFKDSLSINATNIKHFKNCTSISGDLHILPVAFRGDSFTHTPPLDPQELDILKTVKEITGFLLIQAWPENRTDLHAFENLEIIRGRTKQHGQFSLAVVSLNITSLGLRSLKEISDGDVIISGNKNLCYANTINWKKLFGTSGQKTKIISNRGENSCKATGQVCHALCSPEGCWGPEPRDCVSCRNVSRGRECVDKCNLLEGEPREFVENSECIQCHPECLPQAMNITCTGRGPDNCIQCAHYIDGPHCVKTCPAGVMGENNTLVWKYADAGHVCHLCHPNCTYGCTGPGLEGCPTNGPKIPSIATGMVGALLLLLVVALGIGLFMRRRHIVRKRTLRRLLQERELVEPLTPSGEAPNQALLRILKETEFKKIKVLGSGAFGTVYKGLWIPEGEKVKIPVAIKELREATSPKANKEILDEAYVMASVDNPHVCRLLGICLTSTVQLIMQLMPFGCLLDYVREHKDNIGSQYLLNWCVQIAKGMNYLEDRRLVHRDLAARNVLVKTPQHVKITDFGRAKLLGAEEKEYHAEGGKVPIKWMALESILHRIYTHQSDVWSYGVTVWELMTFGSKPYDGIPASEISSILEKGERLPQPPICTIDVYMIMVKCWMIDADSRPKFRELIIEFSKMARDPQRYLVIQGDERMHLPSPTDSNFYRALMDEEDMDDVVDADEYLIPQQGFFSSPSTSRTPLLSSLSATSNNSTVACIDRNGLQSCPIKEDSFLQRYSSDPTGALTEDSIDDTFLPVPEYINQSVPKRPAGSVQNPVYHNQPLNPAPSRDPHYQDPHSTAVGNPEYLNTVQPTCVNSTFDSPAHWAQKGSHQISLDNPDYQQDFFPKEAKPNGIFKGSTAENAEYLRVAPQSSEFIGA
(§2) Assays using an in vitro kinase assay kit (HTRF KinEASE-TK kit) can be used to study the inhibitory activity of compounds described herein with respect to EGFR mutants such as ECFR^L858R, EGFR^L858R/T790M, and EGFR^L858R/T790M/C797S.
(§3) One hundred thirty six compounds were studied using the kinase (EGFR) and BA/F3 assays described herein, with more than 60% of the tested compounds providing IC50<50 nM values in all six assays. Accordingly, compounds of the invention are a new general class of kinase inhibitors, including potent inhibitors of EGFR mutants.
(§4) Exemplary kinase inhibition (Kinase) and anti-proliferation activity (Ba/F3) data are shown in Table 1 for certain compounds of the invention and are categorized according to the below legend.
(In general: TR-FRET usually uses a lanthanide donor and a delayed reading to cut background.)

In a further test the target is EGFR^L858R (Homo sapiens, UniProt P00533, L858R). Nature of the test: HTRF KinEASE-TK in vitro kinase assay, EGFR L858R (L). Format: biochemical. The conditions noted are these: EGFR L858R kinase inhibition.
EGFR^L858R, sequence (P00533 25-1210 L858R): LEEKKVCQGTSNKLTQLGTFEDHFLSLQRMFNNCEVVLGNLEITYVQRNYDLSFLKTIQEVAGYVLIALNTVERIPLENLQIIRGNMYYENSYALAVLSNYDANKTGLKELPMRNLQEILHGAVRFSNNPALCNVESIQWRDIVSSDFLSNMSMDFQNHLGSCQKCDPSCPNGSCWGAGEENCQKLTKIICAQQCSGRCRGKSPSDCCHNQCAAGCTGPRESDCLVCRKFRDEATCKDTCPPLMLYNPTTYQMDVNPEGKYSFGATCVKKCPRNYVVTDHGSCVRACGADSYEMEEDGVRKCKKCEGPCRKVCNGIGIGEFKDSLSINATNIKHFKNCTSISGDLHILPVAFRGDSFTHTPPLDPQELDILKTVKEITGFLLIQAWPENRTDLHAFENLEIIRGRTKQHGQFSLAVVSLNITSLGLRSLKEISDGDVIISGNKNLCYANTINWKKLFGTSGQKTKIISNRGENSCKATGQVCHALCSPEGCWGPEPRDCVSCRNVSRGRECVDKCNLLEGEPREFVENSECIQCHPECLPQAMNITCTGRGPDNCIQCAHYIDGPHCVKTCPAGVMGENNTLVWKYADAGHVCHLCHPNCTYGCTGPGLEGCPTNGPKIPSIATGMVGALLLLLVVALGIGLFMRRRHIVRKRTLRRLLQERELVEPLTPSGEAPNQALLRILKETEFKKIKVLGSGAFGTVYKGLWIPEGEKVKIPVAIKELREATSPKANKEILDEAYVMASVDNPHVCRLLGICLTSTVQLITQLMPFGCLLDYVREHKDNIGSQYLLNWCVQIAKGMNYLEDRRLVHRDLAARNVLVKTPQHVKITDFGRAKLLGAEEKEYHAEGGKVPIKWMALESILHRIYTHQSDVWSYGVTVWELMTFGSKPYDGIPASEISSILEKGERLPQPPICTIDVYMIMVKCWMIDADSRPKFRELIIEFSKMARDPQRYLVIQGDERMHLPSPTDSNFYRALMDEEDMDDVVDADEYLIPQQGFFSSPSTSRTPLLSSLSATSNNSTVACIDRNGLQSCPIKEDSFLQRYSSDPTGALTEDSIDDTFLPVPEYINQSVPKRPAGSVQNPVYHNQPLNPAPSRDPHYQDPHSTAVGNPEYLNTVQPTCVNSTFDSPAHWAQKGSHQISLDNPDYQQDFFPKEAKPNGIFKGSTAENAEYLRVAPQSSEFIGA
Text: as §1, §2, §3, §4

The next test concerns the target Ba/F3 EGFR-Del19/T790M (Homo sapiens, UniProt P00533, T790M, cells depend on it, form not given). The test is described as follows: Ba/F3 viability assay (CellTiter-Glo), EGFR-Del19/T790M (DT). It is filed as cell-based. The settings on record: Ba/F3 EGFR-Del19/T790M anti-proliferation; read-out: BAF3 DT IC50.
Text: (§5) Inhibition of cell proliferation can be studied using Ba/F3 viability assays, including the Promega CellTiter-Glo cell viability assay. This assay can be used to study the effect of compounds described herein in the following assays: (1) Ba/F3 Parental; (2) Ba/F3 EGFR-Del19/T790M; (3); Ba/F3 EGFR-Del19/C797S; and (4) Ba/F3 EGFR-Del119/T790M/C797S.
as §3, §4

The target of another test is Ba/F3 EGFR-Del19/C797S (Homo sapiens, UniProt P00533, C797S, cells depend on it, form not given). Nature of the test: Ba/F3 viability assay (CellTiter-Glo), EGFR-Del19/C797S (DC). Format: cell-based. The conditions noted are these: Ba/F3 EGFR-Del19/C797S anti-proliferation; read-out: BAF3 DC IC50.
Ba/F3 EGFR-Del19/C797S, sequence (P00533 with tags, fused parts or gaps DEL746-750/C797S, form open): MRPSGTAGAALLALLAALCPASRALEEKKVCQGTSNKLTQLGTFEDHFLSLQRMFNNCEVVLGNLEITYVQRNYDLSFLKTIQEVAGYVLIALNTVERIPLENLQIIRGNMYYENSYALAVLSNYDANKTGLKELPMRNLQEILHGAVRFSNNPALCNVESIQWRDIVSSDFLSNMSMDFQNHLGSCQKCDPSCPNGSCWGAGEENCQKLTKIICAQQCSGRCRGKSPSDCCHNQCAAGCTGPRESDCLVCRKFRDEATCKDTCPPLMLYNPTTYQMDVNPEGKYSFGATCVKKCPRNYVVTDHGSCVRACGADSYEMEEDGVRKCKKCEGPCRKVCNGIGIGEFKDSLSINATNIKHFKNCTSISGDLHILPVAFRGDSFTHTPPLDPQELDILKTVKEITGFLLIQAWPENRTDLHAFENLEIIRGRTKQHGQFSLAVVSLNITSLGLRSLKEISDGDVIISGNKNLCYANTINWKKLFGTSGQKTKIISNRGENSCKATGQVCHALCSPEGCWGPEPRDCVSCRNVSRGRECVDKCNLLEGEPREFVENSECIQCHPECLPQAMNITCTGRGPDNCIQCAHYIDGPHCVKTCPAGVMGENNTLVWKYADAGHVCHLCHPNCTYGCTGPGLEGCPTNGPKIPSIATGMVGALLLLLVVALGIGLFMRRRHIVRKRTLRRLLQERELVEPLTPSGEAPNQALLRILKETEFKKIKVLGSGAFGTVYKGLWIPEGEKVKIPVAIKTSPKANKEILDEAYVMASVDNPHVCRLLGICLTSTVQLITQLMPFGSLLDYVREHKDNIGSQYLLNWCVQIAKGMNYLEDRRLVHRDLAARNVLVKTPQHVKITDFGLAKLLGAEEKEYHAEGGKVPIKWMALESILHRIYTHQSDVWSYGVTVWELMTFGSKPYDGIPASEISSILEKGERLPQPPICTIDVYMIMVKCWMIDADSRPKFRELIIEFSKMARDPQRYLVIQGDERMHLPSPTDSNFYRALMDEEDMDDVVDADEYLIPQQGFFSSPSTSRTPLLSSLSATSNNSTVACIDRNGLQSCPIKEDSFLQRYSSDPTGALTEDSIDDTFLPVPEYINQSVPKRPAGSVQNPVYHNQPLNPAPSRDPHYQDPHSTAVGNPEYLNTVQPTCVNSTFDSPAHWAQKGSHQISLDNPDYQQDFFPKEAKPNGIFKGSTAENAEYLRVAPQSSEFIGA
Text: as §5, §3, §4

The target in a further test is EGFR^L858R/T790M/C797S (Homo sapiens, UniProt P00533, C797S/L858R/T790M). The test is described as follows: HTRF KinEASE-TK in vitro kinase assay, EGFR L858R/T790M/C797S (LTC). Format: biochemical. The conditions noted are these: EGFR L858R/T790M/C797S kinase inhibition.
EGFR^L858R/T790M/C797S, sequence (P00533 25-1210 T790M/C797S/L858R): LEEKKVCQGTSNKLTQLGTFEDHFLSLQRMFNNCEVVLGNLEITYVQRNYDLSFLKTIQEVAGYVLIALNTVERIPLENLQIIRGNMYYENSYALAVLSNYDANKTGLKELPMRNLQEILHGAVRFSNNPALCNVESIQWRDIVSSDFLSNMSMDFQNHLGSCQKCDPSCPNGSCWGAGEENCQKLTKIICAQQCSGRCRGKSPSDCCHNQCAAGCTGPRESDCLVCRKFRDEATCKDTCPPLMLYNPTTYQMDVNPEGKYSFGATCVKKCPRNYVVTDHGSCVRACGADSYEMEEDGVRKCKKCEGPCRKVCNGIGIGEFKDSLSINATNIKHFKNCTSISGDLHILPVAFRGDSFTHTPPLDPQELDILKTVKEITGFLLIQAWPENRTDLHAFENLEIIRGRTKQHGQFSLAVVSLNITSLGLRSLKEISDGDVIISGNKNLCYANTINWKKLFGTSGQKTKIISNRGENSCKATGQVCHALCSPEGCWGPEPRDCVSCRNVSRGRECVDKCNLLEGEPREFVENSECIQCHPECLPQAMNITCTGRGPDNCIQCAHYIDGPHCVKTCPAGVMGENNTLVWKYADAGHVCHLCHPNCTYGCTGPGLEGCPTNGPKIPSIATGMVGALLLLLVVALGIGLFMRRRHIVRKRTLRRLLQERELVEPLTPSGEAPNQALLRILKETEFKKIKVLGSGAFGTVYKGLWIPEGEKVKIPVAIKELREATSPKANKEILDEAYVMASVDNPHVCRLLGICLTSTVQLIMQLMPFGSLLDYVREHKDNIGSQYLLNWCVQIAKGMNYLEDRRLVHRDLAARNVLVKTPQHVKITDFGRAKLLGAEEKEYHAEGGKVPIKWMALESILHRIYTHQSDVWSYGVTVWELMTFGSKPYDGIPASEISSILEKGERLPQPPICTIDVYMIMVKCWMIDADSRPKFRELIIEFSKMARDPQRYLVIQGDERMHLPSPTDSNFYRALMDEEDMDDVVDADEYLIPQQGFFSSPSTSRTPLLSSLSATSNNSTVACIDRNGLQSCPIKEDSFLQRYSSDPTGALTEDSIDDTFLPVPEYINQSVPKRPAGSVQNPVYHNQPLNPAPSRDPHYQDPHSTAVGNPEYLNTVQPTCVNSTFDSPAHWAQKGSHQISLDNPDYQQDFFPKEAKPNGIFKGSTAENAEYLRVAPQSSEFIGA
Text: as §1, §2, §3, §4

Test [1] concerns the target Ba/F3 EGFR-Del19/T790M/C797S (Homo sapiens, UniProt P00533, T790M/C797S, cells depend on it, form not given). Nature of the test: Ba/F3 viability assay (CellTiter-Glo), EGFR-Del19/T790M/C797S (DTC). Format: cell-based. The settings on record: Ba/F3 EGFR-Del19/T790M/C797S anti-proliferation; read-out: BAF3 DTC IC50.
Text: as §5, §3, §4
(ATP-based viability assays read luminescence as a measure of living cells.)

Regarding `CC(C)n1cc(-c2cnc3cc2O[C@@H](C)CCOc2c(cnn2C)-c2nccc(n2)N3)c(OCC(F)F)n1` [(15)], the 50% inhibitory concentration (IC50) at EGFR^L858R/T790M, at EGFR^L858R and on EGFR^L858R/T790M/C797S was below 50 nM in each case. Moreover, the GI50 (on Ba/F3 EGFR-Del19/T790M; on Ba/F3 EGFR-Del19/C797S; in test [1]) was below 50 nM in each case.
`CCOc1nn(C2CCN(C)CC2F)cc1-c1cnc2cc1O[C@@H](C)CCOc1c(cnn1C)-c1nccc(n1)N2` (stereo partly drawn) [(16)]: the half-inhibitory concentration (IC50) on EGFR^L858R/T790M, on EGFR^L858R and at EGFR^L858R/T790M/C797S was below 50 nM in each case. In addition, the GI50 (at Ba/F3 EGFR-Del19/T790M; on Ba/F3 EGFR-Del19/C797S; in test [1]) was below 50 nM in each case.
For the compound `CCOc1nn(C2CC2)cc1-c1cnc2cc1O[C@@H](C)CCOc1c(cnn1C)-c1nccc(n1)N2` [(18)], the 50% inhibitory concentration (IC50) at EGFR^L858R/T790M, at EGFR^L858R and on EGFR^L858R/T790M/C797S was below 50 nM each time. Also, the GI50 (on Ba/F3 EGFR-Del19/T790M; at Ba/F3 EGFR-Del19/C797S; in test [1]) was below 50 nM each time.
In the case of `CCOc1nn(C2CC2CN2CCOCC2)cc1-c1cnc2cc1O[C@@H](C)CCOc1c(cnn1C)-c1nccc(n1)N2` (stereo partly drawn) [(20)], the IC50 on EGFR^L858R/T790M, on EGFR^L858R and at EGFR^L858R/T790M/C797S was below 50 nM in each case. Also, the GI50 (at Ba/F3 EGFR-Del19/T790M; at Ba/F3 EGFR-Del19/C797S; in test [1]) was below 50 nM each time.
For `CCOc1nn(CC(F)F)cc1-c1cnc2cc1O[C@@H](C)CCOc1c(cnn1C)-c1nccc(n1)N2` [(29)], the IC50 at EGFR^L858R/T790M, at EGFR^L858R and on EGFR^L858R/T790M/C797S was below 50 nM each time. The GI50 (at Ba/F3 EGFR-Del19/T790M; on Ba/F3 EGFR-Del19/C797S; in test [1]) was below 50 nM each time.
Consider `CCOc1nn(C2CC3CCC(C2)O3)cc1-c1cnc2cc1O[C@@H](C)CCOc1c(cnn1C)-c1nccc(n1)N2` (stereo partly drawn) [(30)], for which the concentration for half-maximal inhibition (IC50) at EGFR^L858R/T790M, on EGFR^L858R and at EGFR^L858R/T790M/C797S was below 50 nM in each case. The GI50 (at Ba/F3 EGFR-Del19/T790M; on Ba/F3 EGFR-Del19/C797S; in test [1]) was below 50 nM in each case.
With `C[C@H]1CCOc2c(cnn2C)-c2nccc(n2)Nc2cc(c(-c3cn(C4CC4)nc3OCC(F)(F)F)cn2)O1` [(32)], the half-maximal inhibitory concentration (IC50) on EGFR^L858R/T790M, at EGFR^L858R and on EGFR^L858R/T790M/C797S was below 50 nM throughout. For the same compound, the GI50 (on Ba/F3 EGFR-Del19/T790M; at Ba/F3 EGFR-Del19/C797S; in test [1]) was below 50 nM each time.
Consider `CCOc1nn(C2CC(C)(C)OC(C)(C)C2)cc1-c1cnc2cc1O[C@@H](C)CCOc1c(cnn1C)-c1nccc(n1)N2` [(33)], for which the half-inhibitory concentration (IC50) on EGFR^L858R/T790M, on EGFR^L858R and at EGFR^L858R/T790M/C797S was below 50 nM throughout. The GI50 is 50 to 100 nM on Ba/F3 EGFR-Del19/T790M, 50 to 100 nM on Ba/F3 EGFR-Del19/C797S and below 50 nM in test [1].
In the case of `CCOc1nn(-c2ccncc2)cc1-c1cnc2cc1O[C@@H](C)CCOc1c(cnn1C)-c1nccc(n1)N2` [(34)], the concentration for half-maximal inhibition (IC50) on EGFR^L858R/T790M, at EGFR^L858R and at EGFR^L858R/T790M/C797S was below 50 nM each time. Further, the GI50 at Ba/F3 EGFR-Del19/T790M is 50 to 100 nM; at Ba/F3 EGFR-Del19/C797S, below 50 nM; in test [1], below 50 nM.
As for `CCOc1ncc(C)cc1-c1cnc2cc1O[C@@H](C)CCOc1c(cnn1C)-c1nccc(n1)N2` [(35)], the concentration for half-maximal inhibition (IC50) – broadly, the concentration needed to halve the response being measured – on EGFR^L858R/T790M was below 50 nM; on EGFR^L858R it was at least 1000 nM; on EGFR^L858R/T790M/C797S, 100 to 1000 nM. The GI50 at Ba/F3 EGFR-Del19/T790M is 100 to 1000 nM; on Ba/F3 EGFR-Del19/C797S it was at least 1000 nM; in test [1], 100 to 1000 nM.
As to `C[C@H]1CCOc2c(cnn2C)-c2nccc(n2)Nc2cc(c(-c3cn(C4CN(C5COC5)C4)nc3OCCF)cn2)O1` [(36)], the half-maximal inhibitory concentration (IC50) on EGFR^L858R/T790M, on EGFR^L858R and on EGFR^L858R/T790M/C797S was below 50 nM throughout. Moreover, the GI50 (at Ba/F3 EGFR-Del19/T790M; on Ba/F3 EGFR-Del19/C797S; in test [1]) was below 50 nM in each case.
